In experiment [1] the test system is WT and Mpo^-/- mice. In words: Electrophysiological investigation (EPI), induction of AF by right atrial stimulation, surface ECG. The format is in vivo. The procedure:
(§1) Angiotensin II and myeloperoxidase treatment of mice. We treated male C57BL/6J (WT) and MPOtmllus mice (Mpo^-/^-) on a C57BL/6 background, aged 12-15 weeks, via ALZET osmotic pumps with angiotensin II (AngII, 1.5 ng/g body weight/minute) or saline (vehicle) for 14 days prior to electrophysiological investigation (EPI). We treated another cohort of WT and Mpo^-/- mice via ALZET osmotic pumps with a connected jugular catheter with recombinant MPO (5.0, 12.5 and 50 pg/g body weight/minute, which we calculated to generate physiological plasma levels of MPO ranging between 100 and 1100 pM, respectively) or recombinant human serum albumin (HSA) for 7 days in combination with either AngII or saline prior to EPI. Animal experiments, conformed with the Guide for the Care and Use of Laboratory Animals published by the US National Institutes of Health and were approved by the review board of Hamburg and Bonn.
Electrophysiological investigation (EPI). We examined mice electrophysiologically using a single catheter technique ^19,32. We analyzed standard ECG-parameters obtained by a 6-lead-surface-ECG. EPI included transvenous atrial and ventricular recording and stimulation^21. For induction of AF, we performed atrial and ventricular burst and programmed atrial stimulations. We defined atrial fibrillation as rapid and fragmented atrial electrograms with irregular AV-nodal conduction for >1 s. AF-episodes persisting >1 min were classified as sustained AF. Number, duration, and probability of inducible AF-episodes were analyzed.

In experiment [2] the test system is Langendorff perfused hearts from WT and Mpo^-/- mice. In words: Epicardial mapping of Langendorff-perfused hearts. The note with it: atria from AngII treated Mpo^-/- mice, in contrast to AngII challenged WT mice. How it is done: as §1
Epicardial mapping of Langendorff-perfused hearts. We determined spontaneous and stimulated myocardial conduction velocities and characteristics of Langendorff perfused hearts by epicardial activation mapping using a 128-electrodearray^21.

The next experiment relates to WT mice. As to the kind of experiment: MPO content in mouse plasma and atrial tissue (ELISA) after angiotensin II infusion. The class given is in vivo. The note with it: 2 week subcutaneous infusion of AngII. How it is done:
as §1
Assessment of MPO content in human and mouse plasma and atrial tissue. We determined MPO levels by ELISA (human: Prognostix, Cleveland, USA; mouse: hycult biotechnology, The Netherlands).
A general note: An ELISA detects its analyte on a solid surface through an enzyme-linked reagent.

Experiment [3] has as its system WT and Mpo^-/- mice. As to the kind of experiment: Radiotelemetric blood pressure measurements. The format is in vivo. To be noted: AngII, Mpo^-/- mice compared with WT mice. How it is done:
as §1
Radiotelemetric blood pressure measurements. We performed blood pressure measurements as previously^36. In brief, we inserted the tip of the telemetry device (TA11 PA-C10; Data Sciences International, St. Paul, USA) into the carotid lumen. After 10 days, data acquisition started for 1 minute every 5 minutes for 3 days. […] We recorded blood pressure and heart rate for the following week in MPO treated mice and two weeks in AngII treated animals, respectively.

In the case of “angiotensin II (DRVYIHPF; Angiotensin-2; UniProt P01019 25-32, looked up) [AngII]”, the “inducibility of AF” value with WT and Mpo^-/- mice [1] (Mpo^-/- mice, AngII for 14 days) is “did not affect the inducibility of AF”. Also, in the experiment with WT and Mpo^-/- mice [1] (WT mice, AngII for 14 days, right atrial electrophysiological stimulation), the “susceptibility for AF (number and duration of AF-episodes, probability of AF induction)” value is “higher susceptibility for AF”. Besides, the P wave duration entry in the experiment on WT and Mpo^-/- mice [1] (WT mice, AngII treatment, in vivo surface ECG, p<0.001) is given as “significant prolongation”. Besides, in experiment [2], the conduction velocity result is “no retardation in conduction velocity”. In addition, the “myocardial deposition of MPO” value in the experiment with WT mice is “elevated”. Also, the “circulating MPO plasma levels” value with WT mice (1.5 ng/g body weight/minute) is “substantially increased”. Moreover, in the experiment with WT and Mpo^-/- mice [3], the “blood pressure elevating effect” value was “blunted”.

Source of the values: patent EP2366431A1, “Myeloperoxidase as a target in atrial fibrillation” (Universitätsklinikum Hamburg-Eppendorf, priority 2010, dated 2011).
